Experiment [1] deals with cerebral infarct lesion. Set-up: therapeutic effect for cerebral apoplexy and cerebral infarction: dose or concentration left out as unconfirmed. Particulars: cited from earlier work.
Experiment [2] deals with cuttings of pothos. Put plainly: Hydroponic culture of cuttings of pothos (rooting). Set-up: species or system pothos (Epipremunum aureum, golden pothos). The note with it: 100 fg/ml in water. On the procedure:
Next, we have examined whether ginsenosides, especially ginsenoside Rb1, can promote generation, regeneration or reconstruction of not only skin tissue or mouth mucosal tissue but also plant tissues. For that purpose, one of foliage plants, pothos is selected. Six cuttings resembled with each other from the parent plant of pothos in the room of one of the inventors (Tanaka) were collected. Among them, 3 cuttings were cultured by hydroponics with the use of only water and the remaining three were cultured in water containing ginsenoside Rb1 at a concentration of 100 fg/ml. FIG. 9 is a photograph in place of drawing.
Then, we have further continued cultivation of the above cuttings with hydroponics and on day 22, again photographs were taken. FIG. 10 is a photograph in place of drawing. Left photograph in FIG. 10 is the cuttings of pothos cultured with only water for 22 days and right photograph in FIG. 10 is the cuttings cultured with water containing the low concentration of ginsenoside Rb1 (100 fg/ml). Waters with or without containing ginsenoside Rb1 for hydroponics were exchanged once in a week. We have further made observation of rooting region on day 27.
Next, we have examined whether a crude saponin fraction of ginseng, like ginsenoside Rb1 at low concentrations, can promote, generation, regeneration or reconstruction of the cutting of pothos. For that purpose, two cuttings resembled with each other from the parent plant of pothos were collected. Among them, the one cutting was cultured with only water and the remaining one was cultured in water containing the crude saponin fraction of ginseng at a concentration of 1450 fg/ml. FIG. 11 is a photograph in place of drawing. Left photograph in FIG. 11 is the cutting cultured with only water and right photograph in FIG. 11 is the cutting cultured with water containing the crude saponin fraction of ginseng (1450 fg/ml). […]

Experiment [3] has as its system incised wound of skin. Put plainly: Incised wound healing by intravenous infusion. It counts as in vivo, Wistar rats. Particulars: vs physiological saline. On the procedure: In order to investigate the effects of low dosages, low doses or low concentrations of ginsenoside Rb1 on regeneration and/or reconstruction of skin tissue, the effect(s) of continuous intravenous infusion of ginsenoside Rb1 on incised wound of skin which enabled us to observe easily regeneration phenomena of tissues or cells was examined. Male, Wistar rats (body weight about 300 g) were used. The animals were bred in a room with a 12:12 hour light-dark cycle, and water and feed were supplied ad libitum. Incised wound with length about 3 cm was made in the dorsal region of animals under inhalation anesthesia, and sutured with nylon thread. One hour later, ginsenoside Rb1 (60 μg) dissolved in physiological saline was once intravenously injected. Thereafter continuous intravenous infusion of ginsenoside Rb1 (60 μg/day) was performed for 7 days by using an Alza osmotic minipump.
An equal amount of physiological saline was administered intravenously in the control animals, for which the same […] was made and sutured with nylon thread.
On day 2 after finishing continuous intravenous administration of ginsenoside Rb1 or physiological saline, the animals were anesthetized with pentobarbital and perfused transcardially with 0.1 M phosphate buffer containing 4% paraformaldehyde. […]

The structures appear in SMILES notation.

Take `CC(C)=CCC[C@](C)(O[C@@H]1O[C@H](CO[C@@H]2O[C@H](CO)[C@@H](O)[C@H](O)[C@H]2O)[C@@H](O)[C@H](O)[C@H]1O)[C@H]1CC[C@]2(C)[C@@H]1[C@H](O)C[C@@H]1[C@@]3(C)CC[C@H](O[C@@H]4O[C@H](CO)[C@@H](O)[C@H](O)[C@H]4O[C@@H]4O[C@H](CO)[C@@H](O)[C@H](O)[C@H]4O)C(C)(C)[C@@H]3CC[C@]12C` [ginsenoside Rb1]: in experiment [1] (continuous intravenous administration 6 μg/day), the “therapeutic effect for cerebral infarction and cerebral apoplexy” value is on record as “superior therapeutic effect”. Besides, the “therapeutic effect for cerebral apoplexy and cerebral infarction” value in experiment [1] (continuous intravenous administration) is recorded as “superior therapeutic effect”. In addition, the “volume of cerebral infarct lesion” value in experiment [1] (intravenous continuous administration of low dosages, JP Appln. No. Hei 10-365560) is recorded as “about ¼”. The “generation or regeneration of roots (FIG. 10)” value in experiment [2] (22 days) is “many roots were generated or regenerated”. For the same molecule, in experiment [2] (day 13, vs water alone), the “growth of root (FIG. 9)” value is “growth of root is promoted”. Further, the “secondary rooting arising from the primary rooting regions” value in experiment [2] (day 27, none on cuttings in water only) was “clearly observed on all three cuttings”. In addition, in experiment [3] (60 μg/day continuous iv for 7 days after one iv infusion, two days after end of infusion), the “scar or granulation formation in incised wound (HE histology, FIG. 1)” value was “scar or granulation formation was obviously little”. In experiment [3] (60 μg/day continuous iv for 7 days), the “regeneration and reconstruction of epidermis, dermis and subcutaneous tissue after incised wound” value is on record as “regenerated, reconstructed or recovered to the nearly normal condition”.

Values taken from patent publication US20030104079A1, “Skin tissue regeneration promoters comprising ginsenoside Rb1” (Japan Science and Technology Corporation, Japan, priority 2000, published 2003).
